TGI, GI50 and outcome data for 14 molecules are collected here from PubChem BioAssay (NCI).

Among the test systems are NCI-H23 lung; NCI-H522 lung; OVCAR-4 ovarian; OVCAR-5 ovarian; SNB-19 CNS; SW-620 colon; TK-10 renal; UO-31 renal.
What all share (test): NCI-60 cell line screen, 48 h

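Five concentrations, 48 hours, 96-well plates. GI50 = concentration required for 50% inhibition of growth. Definition used: TGI = concentration required for complete inhibition of growth.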 The source made the active and inactive calls. No stated cut-off is given here; in the data, active means GI50 below about 0.43 µM; inactive means the rest. A value given as a limit tells only on which side of the number the result lay.

With `O=C(O)C(=Cc1ccc(-c2ccccc2)cc1)C(=O)O`, the TGI in the experiment on NCI-H23 lung is 32.2 µM; with NCI-H522 lung it was 22.8 µM; with OVCAR-4 ovarian it was 41.2 µM; in the experiment on OVCAR-5 ovarian, more than 55.6 µM; with SNB-19 CNS it was 37.9 µM; with SW-620 colon it was 97.5 µM. Further, the TGI with TK-10 renal was determined as 30.7 µM; in the experiment with UO-31 renal, 27.6 µM.
As to `Cc1ccc2c(c1)Sc1c(ccc3ccccc13)N2`, the GI50 in the experiment with NCI-H23 lung, with NCI-H522 lung, in the experiment on OVCAR-4 ovarian, in the experiment with OVCAR-5 ovarian, with SNB-19 CNS and with SW-620 colon was more than 100 µM in each case. Moreover, the GI50 in the experiment with TK-10 renal is 12.8 µM; with UO-31 renal it was 3.82 µM. Further, the TGI in the experiment with NCI-H23 lung, in the experiment on NCI-H522 lung, with OVCAR-4 ovarian, with OVCAR-5 ovarian, in the experiment on SNB-19 CNS and in the experiment on SW-620 colon was more than 100 µM in each case. The TGI with TK-10 renal and with UO-31 renal was more than 100 µM throughout.
For the molecule `O=C(CC1(O)C(=O)Nc2c(Cl)ccc(Cl)c21)c1ccc(F)cc1` (stereo not given), the TGI was 60.6 µM with NCI-H23 lung; more than 100 µM in the experiment on NCI-H522 lung; 97.9 µM with OVCAR-4 ovarian; more than 100 µM with OVCAR-5 ovarian; more than 100 µM with SNB-19 CNS; more than 100 µM in the experiment with SW-620 colon. For the same molecule, the TGI in the experiment with TK-10 renal and in the experiment on UO-31 renal was more than 100 µM each time.
Regarding `O=c1cc(-c2ccccc2)oc2cc(OC/C(=N/O)c3ccccc3)ccc12`, the GI50 was 22.6 µM in the experiment with NCI-H23 lung; 9.61 µM in the experiment with NCI-H522 lung; 30.5 µM in the experiment on OVCAR-4 ovarian; more than 50 µM in the experiment on OVCAR-5 ovarian; 18.2 µM in the experiment on SNB-19 CNS; more than 50 µM with SW-620 colon. Further, the GI50 in the experiment with TK-10 renal was 7.18 µM; with UO-31 renal, 18.4 µM. Further, the TGI in the experiment on NCI-H23 lung, in the experiment on NCI-H522 lung, in the experiment on OVCAR-4 ovarian, in the experiment on OVCAR-5 ovarian, in the experiment on SNB-19 CNS and in the experiment with SW-620 colon was more than 50 µM each time. The TGI in the experiment on TK-10 renal is 19.9 µM; in the experiment on UO-31 renal, more than 50 µM.
In the case of `O=C(CCc1cc(-c2ccccc2)nc(=S)[nH]1)N(Cc1ccccc1)Cc1ccccc1`, the TGI in the experiment with NCI-H23 lung, with NCI-H522 lung, in the experiment with OVCAR-4 ovarian, with OVCAR-5 ovarian, in the experiment with SNB-19 CNS and in the experiment with SW-620 colon was more than 100 µM throughout. Further, the TGI with TK-10 renal and with UO-31 renal was more than 100 µM throughout.
In the case of `Cc1cc(Cl)cc2c1NC(=O)C2(O)CC(=O)c1ccco1` (stereo not given), the TGI in the experiment on NCI-H23 lung is more than 100 µM; in the experiment on NCI-H522 lung it was more than 100 µM; in the experiment on OVCAR-4 ovarian it was 23.9 µM; in the experiment on OVCAR-5 ovarian it was more than 100 µM; in the experiment with SNB-19 CNS it was more than 100 µM; in the experiment with SW-620 colon, more than 100 µM. In addition, the TGI in the experiment on TK-10 renal and in the experiment on UO-31 renal was more than 100 µM each time.
For the molecule `COc1ccc2c(c1)[n+](=O)c(C(=O)C/C(=N/OCCCc1ccccc1)C(=O)NC13CC4CC(CC(C4)C1)C3)c(C)n2[O-]`, the TGI in the experiment with NCI-H23 lung, in the experiment on NCI-H522 lung, with OVCAR-4 ovarian, in the experiment with OVCAR-5 ovarian, in the experiment on SNB-19 CNS and in the experiment with SW-620 colon was more than 100 µM throughout. In addition, the TGI in the experiment with TK-10 renal and in the experiment with UO-31 renal was more than 100 µM each time.
Regarding `Cc1cc(N(CCC#N)CCC#N)ccc1/C=C1\N=C(c2cc([N+](=O)[O-])ccc2Cl)N(c2cccc(Cl)c2)C1=O`, the TGI with NCI-H23 lung, in the experiment on NCI-H522 lung, in the experiment with OVCAR-4 ovarian, in the experiment on OVCAR-5 ovarian, with SNB-19 CNS and with SW-620 colon was more than 100 µM each time. Further, the TGI with TK-10 renal and in the experiment on UO-31 renal was more than 100 µM throughout.
For the molecule `O=C(Nc1ccncc1)C(=O)c1cn(S(=O)(=O)c2cccc(F)c2)c2ccccc12`, the GI50 was 2.43 µM in the experiment on NCI-H23 lung; 1.3 µM with NCI-H522 lung; 5.09 µM with OVCAR-4 ovarian; more than 100 µM in the experiment on OVCAR-5 ovarian; 49.2 µM in the experiment on SNB-19 CNS; 3.02 µM in the experiment with SW-620 colon. The GI50 in the experiment with TK-10 renal was 15.7 µM; in the experiment with UO-31 renal, 6.15 µM. In addition, the TGI is more than 100 µM with NCI-H23 lung; 15.7 µM with NCI-H522 lung; more than 100 µM in the experiment with OVCAR-4 ovarian; more than 100 µM in the experiment on OVCAR-5 ovarian; more than 100 µM in the experiment with SNB-19 CNS; more than 100 µM with SW-620 colon. Besides, the TGI with TK-10 renal and in the experiment with UO-31 renal was more than 100 µM in each case.
For the molecule `COc1ccc(C(=O)C#Cc2cnc(OC)nc2OC)cc1`, the GI50 in the experiment with NCI-H23 lung is 35000 µM; with NCI-H522 lung, 12700 µM; in the experiment with OVCAR-5 ovarian, 31100 µM; in the experiment with SW-620 colon it was 25200 µM; in the experiment on TK-10 renal, 17700 µM; in the experiment on UO-31 renal, 19100 µM. Besides, the TGI with NCI-H23 lung amounted to 3.08 µM; in the experiment on OVCAR-4 ovarian, 94.4 µM; with OVCAR-5 ovarian, 3.01 µM; in the experiment on SNB-19 CNS, 24.7 µM. In addition, the result in the experiment on OVCAR-4 ovarian and in the experiment on SNB-19 CNS was inactive.
On to `O=C(O)C(CS)Nc1c2ccccc2nc2ccccc12` (stereo not given), for which the TGI with NCI-H23 lung is more than 100 µM; with NCI-H522 lung, more than 100 µM; with OVCAR-4 ovarian, 47.1 µM; with OVCAR-5 ovarian, more than 100 µM; in the experiment with SNB-19 CNS, more than 100 µM; in the experiment with SW-620 colon, more than 100 µM. Further, the TGI in the experiment on TK-10 renal is more than 100 µM; in the experiment with UO-31 renal, 98 µM.
Consider `Nc1c(-c2ccc(Cl)cc2)[n+]([O-])c2ccccc2[n+]1[O-]`, for which the TGI is more than 100 µM with NCI-H23 lung; 85.6 µM with NCI-H522 lung; more than 100 µM in the experiment on OVCAR-4 ovarian; more than 100 µM in the experiment on OVCAR-5 ovarian; more than 100 µM in the experiment with SNB-19 CNS; more than 100 µM in the experiment on SW-620 colon. The TGI in the experiment on TK-10 renal is more than 100 µM; in the experiment with UO-31 renal, 55.3 µM.
On to `O=C(N/C(=C\c1cccc([N+](=O)[O-])c1)c1nc2ccc([N+](=O)[O-])cc2[nH]1)c1ccccc1`, for which the TGI is more than 100 µM with NCI-H23 lung; 52.9 µM in the experiment on NCI-H522 lung; 66.1 µM in the experiment with OVCAR-4 ovarian; more than 100 µM with OVCAR-5 ovarian; more than 100 µM in the experiment with SNB-19 CNS; more than 100 µM in the experiment with SW-620 colon. The TGI with TK-10 renal is more than 100 µM; with UO-31 renal, 58.9 µM.
Turning to `CC(C)(CO)N1CCN(C(=S)Nc2ccccc2)CC1`, the TGI with NCI-H23 lung, in the experiment on NCI-H522 lung, with OVCAR-4 ovarian, in the experiment on OVCAR-5 ovarian, in the experiment on SNB-19 CNS and in the experiment with SW-620 colon was more than 100 µM each time. The TGI in the experiment with TK-10 renal and in the experiment with UO-31 renal was more than 100 µM each time.
